#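 Step 1: Grow cells in 96-well plates. Step 2: Expose to compound for 48 hours at 5 concentrations. Step 3: Interpolate endpoints linearly; if unreached, use highest concentration. At the GI50, growth is halved.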 Activity calls are given as the source filed them. No stated cut-off is given here; in the data, active = GI50 up to about 1.1 µM and inactive = higher.
# How the values were obtained:
# Test in all cases: DTP human tumour cell line panel, 48 h
# SN12C = tested on: SN12C
# HCT-116 = tested on: HCT-116
# EKVX = tested on: EKVX
# DU-145 = tested on: DU-145
# HCC 2998 = tested on: HCC 2998
# K562 = tested on: K562
# SF-295 = tested on: SF-295
# HCT-15 = tested on: HCT-15
# RXF 393 = tested on: RXF 393
# HOP-62 = tested on: HOP-62
# Malme-3M = tested on: Malme-3M
# UACC-62 = tested on: UACC-62
# CCRF-CEM = tested on: CCRF-CEM
# NCI-H23 = tested on: NCI-H23
# RPMI-8226 = tested on: RPMI-8226
# HT-29 = tested on: HT-29
# MCF7 = tested on: MCF7
# MDA-MB-231 = tested on: MDA-MB-231
# OVCAR-8 = tested on: OVCAR-8
# Hs-578T = tested on: Hs-578T
# KM12 = tested on: KM12
# SF-539 = tested on: SF-539
# MOLT-4 = tested on: MOLT-4
# NCI-H522 = tested on: NCI-H522
# MDA-MB-435 = tested on: MDA-MB-435
# NCI-H460 = tested on: NCI-H460
# IGROV-1 = tested on: IGROV-1
# SK-MEL-5 = tested on: SK-MEL-5
# HL-60 = tested on: HL-60
# PC-3 = tested on: PC-3
# T47D = tested on: T47D
# CAKI-1 = tested on: CAKI-1
# OVCAR-5 = tested on: OVCAR-5
# MDA-N = tested on: MDA-N
# HOP-92 = tested on: HOP-92
# A549 = tested on: A549
# SNB-75 = tested on: SNB-75
# BT-549 = tested on: BT-549
# OVCAR-4 = tested on: OVCAR-4
# LOX IMVI = tested on: LOX IMVI
# COLO 205 = tested on: COLO 205
# A498 = tested on: A498
# SR = tested on: SR
# UO-31 = tested on: UO-31
# ACHN = tested on: ACHN
# M14 = tested on: M14
# SF-268 = tested on: SF-268
# 786-0 = tested on: 786-0
# SK-MEL-2 = tested on: SK-MEL-2
# UACC-257 = tested on: UACC-257
# TK-10 = tested on: TK-10
# SW-620 = tested on: SW-620
# SK-OV-3 = tested on: SK-OV-3
# OVCAR-3 = tested on: OVCAR-3
# NCI-H226 = tested on: NCI-H226
# U-251 = tested on: U-251
# SK-MEL-28 = tested on: SK-MEL-28
# SNB-19 = tested on: SNB-19
# NCI/ADR-RES = tested on: NCI/ADR-RES
smiles,measurement,setting,value
C[C@@H]1C(=O)C[C@H]2C(C)(C)CCC[C@]2(C)[C@@]1(O)CCc1ccoc1,GI50,SN12C,> 100 µM (inactive)
same,GI50,HCT-116,> 100 µM (inactive)
same,GI50,EKVX,> 100 µM (inactive)
same,GI50,DU-145,> 100 µM (inactive)
same,GI50,HCC 2998,> 100 µM (inactive)
same,GI50,K562,> 100 µM (inactive)
same,GI50,SF-295,> 100 µM (inactive)
same,GI50,HCT-15,> 100 µM
same,GI50,RXF 393,> 100 µM (inactive)
same,GI50,HOP-62,> 100 µM (inactive)
same,GI50,Malme-3M,> 100 µM (inactive)
same,GI50,UACC-62,> 100 µM (inactive)
same,GI50,CCRF-CEM,> 100 µM (inactive)
same,GI50,NCI-H23,> 100 µM (inactive)
same,GI50,RPMI-8226,84.3 µM (inactive)
same,GI50,HT-29,> 100 µM (inactive)
same,GI50,MCF7,> 100 µM (inactive)
same,GI50,MDA-MB-231,> 100 µM (inactive)
same,GI50,OVCAR-8,> 100 µM (inactive)
same,GI50,Hs-578T,89.5 µM (inactive)
same,GI50,KM12,> 100 µM (inactive)
same,GI50,SF-539,> 100 µM (inactive)
same,GI50,MOLT-4,80.4 µM (inactive)
same,GI50,NCI-H522,66.4 µM (inactive)
same,GI50,MDA-MB-435,> 100 µM (inactive)
same,GI50,NCI-H460,> 100 µM (inactive)
same,GI50,IGROV-1,57.4 µM (inactive)
same,GI50,SK-MEL-5,> 100 µM (inactive)
same,GI50,HL-60,53 µM (inactive)
same,GI50,PC-3,> 100 µM (inactive)
same,GI50,T47D,82 µM (inactive)
same,GI50,CAKI-1,> 100 µM (inactive)
same,GI50,OVCAR-5,> 100 µM (inactive)
same,GI50,MDA-N,> 100 µM (inactive)
same,GI50,HOP-92,> 100 µM (inactive)
same,GI50,A549,> 100 µM (inactive)
same,GI50,SNB-75,> 100 µM (inactive)
same,GI50,BT-549,> 100 µM (inactive)
same,GI50,OVCAR-4,> 100 µM (inactive)
same,GI50,LOX IMVI,> 100 µM (inactive)
same,GI50,COLO 205,> 100 µM (inactive)
same,GI50,A498,> 100 µM (inactive)
same,GI50,SR,11.5 µM (inactive)
same,GI50,UO-31,55.1 µM (inactive)
same,GI50,ACHN,> 100 µM (inactive)
same,GI50,M14,> 100 µM (inactive)
same,GI50,SF-268,96.4 µM (inactive)
same,GI50,786-0,> 100 µM (inactive)
same,GI50,SK-MEL-2,> 100 µM (inactive)
same,GI50,UACC-257,> 100 µM (inactive)
same,GI50,TK-10,> 100 µM (inactive)
same,GI50,SW-620,> 100 µM (inactive)
same,GI50,SK-OV-3,> 100 µM (inactive)
same,GI50,OVCAR-3,> 100 µM (inactive)
same,GI50,NCI-H226,13.4 µM (inactive)
same,GI50,U-251,> 100 µM (inactive)
same,GI50,SK-MEL-28,> 100 µM (inactive)
same,GI50,SNB-19,> 100 µM (inactive)
COc1ccc(C2=C(Cl)c3cc(OC)c(OC)cc3C2=O)cc1OC,GI50,SN12C,18 µM (inactive)
same,GI50,HCT-116,4.22 µM (inactive)
same,GI50,EKVX,20.1 µM (inactive)
same,GI50,DU-145,18.7 µM (inactive)
same,GI50,HCC 2998,22.6 µM (inactive)
same,GI50,SF-295,> 100 µM (inactive)
same,GI50,HCT-15,6.9 µM
same,GI50,RXF 393,5.7 µM (inactive)
same,GI50,HOP-62,15.3 µM (inactive)
same,GI50,Malme-3M,13.2 µM (inactive)
same,GI50,UACC-62,15.4 µM (inactive)
same,GI50,CCRF-CEM,3.93 µM (inactive)
same,GI50,NCI-H23,12 µM (inactive)
same,GI50,RPMI-8226,18.1 µM (inactive)
same,GI50,HT-29,5.38 µM (inactive)
same,GI50,MCF7,13.1 µM (inactive)
same,GI50,MDA-MB-231,16.4 µM (inactive)
same,GI50,OVCAR-8,16.9 µM (inactive)
same,GI50,Hs-578T,30 µM (inactive)
same,GI50,KM12,17.4 µM (inactive)
same,GI50,SF-539,21.3 µM (inactive)
same,GI50,NCI/ADR-RES,21.9 µM (inactive)
same,GI50,MOLT-4,3.63 µM (inactive)
same,GI50,NCI-H522,12.6 µM (inactive)
same,GI50,MDA-MB-435,15.9 µM (inactive)
same,GI50,IGROV-1,17.5 µM (inactive)
same,GI50,SK-MEL-5,15.9 µM (inactive)
same,GI50,HL-60,1.8 µM (inactive)
same,GI50,T47D,2.95 µM (inactive)
same,GI50,CAKI-1,2.28 µM (inactive)
same,GI50,OVCAR-5,19.8 µM (inactive)
same,GI50,MDA-N,18.5 µM (inactive)
same,GI50,HOP-92,1.8 µM (inactive)
same,GI50,A549,36.9 µM (inactive)
same,GI50,SNB-75,61 µM (inactive)
same,GI50,BT-549,16.1 µM (inactive)
same,GI50,OVCAR-4,12.1 µM (inactive)
same,GI50,LOX IMVI,12 µM (inactive)
same,GI50,COLO 205,3.16 µM (inactive)
same,GI50,A498,18.1 µM (inactive)
same,GI50,SR,6.11 µM (inactive)
same,GI50,UO-31,16.6 µM (inactive)
same,GI50,ACHN,5.57 µM (inactive)
same,GI50,M14,4.84 µM (inactive)
same,GI50,SF-268,18.9 µM (inactive)
same,GI50,786-0,3.43 µM (inactive)
same,GI50,SK-MEL-2,14.4 µM (inactive)
same,GI50,UACC-257,4.28 µM (inactive)
same,GI50,TK-10,13 µM (inactive)
same,GI50,SW-620,12.7 µM (inactive)
same,GI50,SK-OV-3,21 µM (inactive)
same,GI50,OVCAR-3,1.77 µM (inactive)
same,GI50,NCI-H226,38.7 µM (inactive)
same,GI50,SNB-19,> 100 µM (inactive)

# From ChEMBL document CHEMBL1201862, “PubChem BioAssay data set” (2004)
